Assay results from patent US20160286810A1, “ACTIVE COMPOUND COMBINATIONS” (BAYER CROPSCIENCE AG, priority 2012, published 2016).

Tests used:
Assay type in all cases: in vivo
Alternaria solani = assay: Alternaria test (tomatoes)/preventive; details: preventive, 3 days after inoculation
Method: (§1) Solvent: 24.5 parts by weight of acetone • 24.5 parts by weight of dimethylacetamide Emulsifier: 1 part by weight of alkylaryl polyglycol ether
(§2) To produce a suitable preparation of active compound, 1 part by weight of active compound is mixed with the stated amounts of solvent and emulsifier, and the concentrate is diluted with water to the desired concentration.
(§3) To test for preventive activity, young plants are sprayed with the preparation of active compound at the stated rate of application. After the spray coating has dried on, the plants are inoculated with an aqueous spore suspension of Alternaria solani. The plants are then placed in an incubation cabinet at approximately 20° C. and a relative atmospheric humidity of 100%.
The test is evaluated 3 days after the inoculation. 0% means an efficacy which corresponds to that of the untreated control while an efficacy of 100% means that no disease is observed.

Leptosphaeria nodorum = Leptosphaeria nodorum test (wheat)/preventive; details: preventive, 8 days after inoculation
Method: Solvent: 49 parts by weight of N,N-dimethylacetamide Emulsifier: 1 part by weight of alkylaryl polyglycol ether To produce a suitable preparation of active compound, 1 part by weight of active compound or active compound combination is mixed with the stated amounts of solvent and emulsifier, and the concentrate is diluted with water to the desired concentration. To test for preventive activity, young plants are sprayed with the preparation of active compound or active compound combination at the stated rate of application. After the spray coating has been dried, the plants are sprayed with a spore suspension of Leptosphaeria nodorum. The plants remain for 48 hours in an incubation cabinet at approximately 20° C. and a relative atmospheric humidity of approximately 100%. The plants are placed in the greenhouse at a temperature of approximately 22° C. and a relative atmospheric humidity of approximately 80%. The test is evaluated 8 days after the inoculation. 0% means an efficacy which corresponds to that of the untreated control, while an efficacy of 100% means that no disease is observed.

Botrytis cinerea = assay: Botrytis test (beans)/preventive; details: preventive, 2 days after inoculation
Method: as §1, §2
To test for preventive activity, young plants are sprayed with the preparation of active compound. After the spray coating has dried on, 2 small pieces of agar covered with growth of Botrytis cinerea are placed on each leaf. The inoculated plants are placed in a darkened chamber at 20° C. and a relative atmospheric humidity of 100%.
2 days after the inoculation, the size of the lesions on the leaves is evaluated. 0% means an efficacy which corresponds to that of the untreated control, while an efficacy of 100% means that no disease is observed.

Venturia inaequalis = assay: Venturia test (apples)/preventive; details: preventive, 10 days after inoculation
Method: as §1, §2
as §3, with “conidia” for “spore”, “the causal agent of apple scab (Venturia inaequalis) and” for “Alternaria solani. The plants are”, “remain for 1 day” for “placed”
The plants are then placed in a greenhouse at approximately 21° C. and a relative atmospheric humidity of approximately 90%.
The test is evaluated 10 days after the inoculation. 0% means an efficacy which corresponds to that of the untreated control, while an efficacy of 100% means that no disease is observed.

Q: What does the source list for `CNC(=O)C(OC)c1ccccc1COc1cc(C)ccc1C` (stereo not drawn) [Ex 14, N-methyl-alpha-methoxy-2-[(2,5-dimethylphenoxy)methyl]phenylacetamide]?
A: Efficacy in % found (Alternaria solani; 5 ppm a.i.): 52%; Efficacy in % found (Leptosphaeria nodorum; 250 ppm a.i.): 25%; Efficacy in % found (Botrytis cinerea; 1.25 ppm a.i.): 0%; Efficacy in % found (Venturia inaequalis; 1.25 ppm a.i.): 31%

Q: Which results are given for `Cc1cc(OC(C)C)ccc1C(=O)C(C)(C)NC(=O)c1sccc1C` [Ex 13, N-[1-(4-isopropoxy-2-methylphenyl)-2-methyl-1-oxopropan-2-yl]-3-methylthiophene-2-carboxamide]?
A: Efficacy in % found (Alternaria solani; 20 ppm a.i.): 52%; Efficacy in % found (Leptosphaeria nodorum; 250 ppm a.i.): 25%; Efficacy in % found (Venturia inaequalis; 10 ppm a.i.): 64%

Q: `CC1(C)N=C(c2cnc3ccccc3c2)c2cccc(F)c2C1(C)C` [Ex 11, 3-(5-fluoro-3,3,4,4-tetramethyl-3,4-dihydroisoquinolin-1-yl)quinoline] was tested. Which “Efficacy in % found” value (Alternaria solani; 50 ppm a.i.) did it give?
A: The value was 38%.

Q: And the “Efficacy in % found” value (Leptosphaeria nodorum; 250 ppm a.i.)?
A: The value was 75%.

Q: What about the “Efficacy in % found” value (Botrytis cinerea; 0.5 ppm a.i.) of the same compound?
A: Its value is 30%.

Q: And the “Efficacy in % found” value (Venturia inaequalis; 1 ppm a.i.)?
A: The value was 0%.

Q: With `Cn1c(=O)c2sc3c(=O)n(C)c(=O)c3sc2c1=O` [(I-1), 2,6-dimethyl-1H,5H-[1,4]dithiino[2,3-c:5,6-c′]dipyrrole-1,3,5,7(2H,6H)-tetrone] as the compound, how does the “Efficacy in % found” value (Alternaria solani; 50 ppm a.i.) read?
A: The value was 29%.

Q: And the “Efficacy in % found” value (Alternaria solani; 100 ppm a.i.)?
A: Its value is 26%.

Q: What about the “Efficacy in % found” value (Leptosphaeria nodorum; 1000 ppm a.i.) of the same compound?
A: The value was 0%.

Q: What about the “Efficacy in % found” value (Botrytis cinerea; 12.5 ppm a.i.) of the same compound?
A: Its value is 15%.

Q: And the “Efficacy in % found” value (Botrytis cinerea; 25 ppm a.i.)?
A: Its value is 33%.

Q: And the “Efficacy in % found” value (Venturia inaequalis; 12.5 ppm a.i.)?
A: Its value is 0%.

Q: What about the “Efficacy in % found” value (Venturia inaequalis; 25 ppm a.i.) of the same compound?
A: The value was 15%.

Q: What about the “Efficacy in % found” value (Venturia inaequalis; 50 ppm a.i.) of the same compound?
A: Its value is 62%.

Q: With `CC1(C)N=C(c2cnc3ccccc3c2)c2ccccc2C1(F)F` [Ex 10, 3-(4,4-difluoro-3,3-dimethyl-3,4-dihydroisoquinolin-1-yl)quinoline] as the compound, how does the “Efficacy in % found” value (Alternaria solani; 100 ppm a.i.) read?
A: Its value is 37%.

Q: And the “Efficacy in % found” value (Leptosphaeria nodorum; 250 ppm a.i.)?
A: The value was 88%.

Q: `OC(c1cccnc1)c1c(-c2ccc(Cl)cc2F)noc1-c1ccc(F)cc1F` (centres unmarked) [Ex 15, [3-(4-chloro-2-fluorophenyl)-5-(2,4-difluorophenyl)-1,2-oxazol-4-yl](pyridin-3-yl)methanol] was tested. Which “Efficacy in % found” value (Alternaria solani; 5 ppm a.i.) did it give?
A: The value was 24%.

Q: And the “Efficacy in % found” value (Leptosphaeria nodorum; 250 ppm a.i.)?
A: Its value is 88%.

Q: And the “Efficacy in % found” value (Botrytis cinerea; 2.5 ppm a.i.)?
A: Its value is 0%.

Q: And the “Efficacy in % found” value (Venturia inaequalis; 5 ppm a.i.)?
A: The value was 60%.

Q: Which “Efficacy in % found” value (Alternaria solani; 50 ppm a.i.) does the source give for `CC1(C)N=C(c2cnc3ccccc3c2)c2cccc(F)c2C1(F)F` [Ex 12, 3-(4,4,5-trifluoro-3,3-dimethyl-3,4-dihydroisoquinolin-1-yl)quinoline] here?
A: The value was 13%.

Q: And the “Efficacy in % found” value (Leptosphaeria nodorum; 250 ppm a.i.)?
A: Its value is 75%.

Q: What about the “Efficacy in % found” value (Botrytis cinerea; 0.5 ppm a.i.) of the same compound?
A: Its value is 35%.

Q: And the “Efficacy in % found” value (Venturia inaequalis; 0.25 ppm a.i.)?
A: Its value is 46%.
